Data taken from ChEMBL document CHEMBL1135532, “Synthesis of potent leukotriene A(4) hydrolase inhibitors. Identification of 3-[methyl[3-[4-(phenylmethyl)phenoxy]propyl]amino]propanoic acid” (J Med Chem, 2002).

Experiments:
[1] = biological target: T1, Leukotriene A-4 hydrolase (Homo sapiens, UniProt P09960); assay: Inhibition of human whole blood LTB-4 production (Leukotriene B-4).; type: functional
T1 sequence (P09960 whole entry): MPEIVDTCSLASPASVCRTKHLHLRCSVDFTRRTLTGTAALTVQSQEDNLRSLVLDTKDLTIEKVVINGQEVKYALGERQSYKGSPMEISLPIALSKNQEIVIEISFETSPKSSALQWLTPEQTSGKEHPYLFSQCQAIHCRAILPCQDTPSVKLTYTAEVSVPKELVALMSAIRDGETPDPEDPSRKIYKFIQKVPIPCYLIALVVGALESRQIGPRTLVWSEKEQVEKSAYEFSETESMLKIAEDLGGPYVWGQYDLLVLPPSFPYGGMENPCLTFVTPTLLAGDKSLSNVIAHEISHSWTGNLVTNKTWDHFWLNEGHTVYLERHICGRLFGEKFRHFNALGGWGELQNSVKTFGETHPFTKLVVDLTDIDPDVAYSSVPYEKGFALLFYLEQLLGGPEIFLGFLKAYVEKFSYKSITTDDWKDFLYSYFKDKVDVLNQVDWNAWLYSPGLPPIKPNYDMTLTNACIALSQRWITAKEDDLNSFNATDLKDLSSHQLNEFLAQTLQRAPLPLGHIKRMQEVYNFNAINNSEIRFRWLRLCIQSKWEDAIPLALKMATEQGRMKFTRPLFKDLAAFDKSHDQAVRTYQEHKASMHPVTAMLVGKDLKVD

[2] = species on record: Mus musculus; assay: Effective dose measured for mouse ex vivo whole blood LTB-4 production (Leukotriene B-4); type: functional
[3] = biological target: T1, Leukotriene A-4 hydrolase; assay: Inhibition of human leukotriene A4 hydrolase (LTA-4).
[4] = tested on: Mus musculus; assay: Percentage inhibition of mouse ex vivo whole blood LTB-4 production (Leukotriene B-4) at a concentration of 10 mg/kg.; type: functional
[5] = species on record: Mus musculus; assay: Effective dose measured for mouse ex vivo whole blood LTB-4 production; Range is from 3-10.; type: functional
[6] = species on record: Mus musculus; assay: Effective dose measured for mouse ex vivo whole blood LTB-4 production; Range is from 1-3.; type: functional
[7] = species on record: Mus musculus; assay: Effective dose measured for mouse ex vivo whole blood LTB-4 production; Range is from 1-3; type: functional

Compound: CN(CCCOc1ccc(Cc2ccccc2)cc1)CCC(=O)NS(C)(=O)=O
- IC50 [1]: 0.07 µM
- ED90 [2]: ≤ 1 mg/kg

Compound: CN(CCCOc1ccc(Oc2ccccc2)cc1)CCC(=O)O
- IC50 [1]: 0.23 µM
- ED90 [2]: 3 mg/kg
- IC50 [3]: 0.019 µM

Compound: COC(=O)CCCN(C)CCOc1ccc(Cc2ccccc2)cc1
- IC50 [1]: 0.46 µM
- ED90 [2]: ≥ 10 mg/kg
- IC50 [3]: 0.45 µM

Compound: CN(CCCOc1ccc(Cc2ccccc2)cc1)CCC(N)=O
- inhibition in vivo at 10 mg/kg [4]: 98%
- IC50 [1]: 0.11 µM
- IC50 [3]: 0.007 µM

Compound: CN(CCCOc1ccc(Oc2ccc(F)cc2)cc1)CCC(=O)O
- IC50 [1]: 0.21 µM
- ED90 [2]: 3 mg/kg
- IC50 [3]: 0.16 µM

Compound: c1coc(-c2ccc(Oc3ccc(OCCN4CCCC4)cc3)cc2)n1
- inhibition in vivo at 10 mg/kg [4]: 93%

Compound: CCOC(=O)CCCCNCCOc1ccc(Cc2ccccc2)cc1
- IC50 [1]: 2.5 µM
- IC50 [3]: 10.7 µM

Compound: CN(CCCOc1ccc(Oc2ccc(-c3ccccc3)cc2)cc1)CCC(=O)O
- IC50 [1]: 0.19 µM
- ED90 [2]: 10 mg/kg
- IC50 [3]: < 0.0005 µM

Compound: CN(CCCOc1ccc(Cc2ccccc2)cc1)CCS(N)(=O)=O
- inhibition in vivo at 10 mg/kg [4]: 84%
- IC50 [1]: 0.74 µM
- IC50 [3]: 0.004 µM

Compound: O=C(O)CCNCCCCOc1ccc(Cc2ccccc2)cc1
- inhibition in vivo at 10 mg/kg [4]: 70%
- IC50 [1]: 0.49 µM

Compound: CN(CCCOc1ccc(Cc2cccs2)cc1)CCC(=O)O
- ED90 [5]: 10 mg/kg

Compound: O=C(O)CCNCCCOc1ccc(Cc2ccccc2)cc1
- IC50 [1]: 0.28 µM
- ED90 [2]: ≥ 10 mg/kg

Compound: CN(CCCOc1ccc(Cc2ccccc2)cc1)CCC(=O)NS(=O)(=O)c1ccccc1
- IC50 [1]: 0.075 µM
- ED90 [2]: 3 mg/kg

Compound: CN(CCCOc1ccc(Cc2ccccc2)cc1)CCC(=O)O.Cl
- ED90 [6]: 3 mg/kg

Compound: CN(CCCOc1ccc(Cc2ccsc2)cc1)CCC(=O)O
- ED90 [5]: 10 mg/kg

Compound: CN(CCCOc1ccc(Cc2ccccc2)cc1)CCn1cnnn1
- IC50 [1]: 0.56 µM
- IC50 [3]: 1.65 µM

Compound: c1ccc(-c2ccc(OCCN3CCCC3)cc2)cc1
- inhibition in vivo at 10 mg/kg [4]: 9%

Compound: CCOC(=O)CNCCCCCOc1ccc(Cc2ccccc2)cc1
- IC50 [1]: 0.42 µM
- ED90 [2]: 10 mg/kg

Compound: CCOC(=O)CCCNCCOc1ccc(Cc2ccccc2)cc1
- IC50 [1]: 2.5 µM
- IC50 [3]: 3.7 µM

Compound: CCOC(=O)CNCCCCOc1ccc(Cc2ccccc2)cc1
- IC50 [1]: 0.35 µM
- ED90 [2]: ≥ 10 mg/kg

Compound: COC(=O)CCNCCOc1ccc(Cc2ccccc2)cc1
- IC50 [1]: 0.59 µM

Compound: CCOC(=O)CNCCCOc1ccc(Cc2ccccc2)cc1
- inhibition in vivo at 10 mg/kg [4]: 22%
- IC50 [1]: 1.1 µM

Compound: CCOC(=O)CN(C)CCCCOc1ccc(Cc2ccccc2)cc1
- IC50 [1]: 3.3 µM
- IC50 [3]: 6.6 µM

Compound: CN(CCCOc1ccc(Cc2ccccc2)cc1)CCS(=O)(=O)O
- IC50 [1]: 5.2 µM
- IC50 [3]: 0.22 µM

Compound: O=C(O)CNCCCCOc1ccc(Cc2ccccc2)cc1
- IC50 [1]: 0.23 µM
- ED90 [2]: ≥ 10 mg/kg
- IC50 [3]: 0.0013 µM

Compound: CCOC(=O)CCNCCCCOc1ccc(Cc2ccccc2)cc1
- IC50 [1]: 0.076 µM
- ED90 [2]: 3 mg/kg

Compound: CCOC(=O)CCNCCCOc1ccc(Cc2ccccc2)cc1
- IC50 [1]: 0.45 µM
- IC50 [3]: 0.084 µM

Compound: COC(=O)CCN(C)CCCOc1ccc(Cc2ccsc2)cc1
- ED90 [7]: 3 mg/kg
- IC50 [1]: 0.25 µM
- IC50 [3]: 0.87 µM

Compound: CCOC(=O)CCN(C)CCCOc1ccc(Cc2ccccc2)cc1
- IC50 [1]: 0.11 µM
- ED90 [5]: 10 mg/kg

Compound: CN(CCCCOc1ccc(Cc2ccccc2)cc1)CC(=O)O
- IC50 [1]: 0.45 µM
- IC50 [3]: 0.11 µM

Compound: CN(CCCOc1ccc(Oc2ccc(-c3nccs3)cc2)cc1)CCC(=O)O
- inhibition in vivo at 10 mg/kg [4]: 87%
- IC50 [1]: 0.072 µM

Compound: COC(=O)CCN(C)CCCOc1ccc(Cc2cccs2)cc1
- IC50 [1]: 0.095 µM
- ED90 [5]: 10 mg/kg

Compound: CCOC(=O)CNCCOc1ccc(Cc2ccccc2)cc1
- IC50 [1]: > 30 µM
- IC50 [3]: 2.5 µM

Compound: CN(CCCOc1ccc(Oc2ccc(-c3ncco3)cc2)cc1)CCC(=O)O
- IC50 [1]: 0.19 µM
- ED90 [2]: ≥ 10 mg/kg

Compound: CN(CCCOc1ccc(Cc2ccc(F)cc2)cc1)CCC(=O)O
- IC50 [1]: 0.19 µM
- ED90 [2]: ≥ 10 mg/kg

Compound: COC(=O)CCN(C)CCCOc1ccc(Cc2cccnc2)cc1
- inhibition in vivo at 10 mg/kg [4]: 58%

Compound: CCOC(=O)CCN(C)CCCCOc1ccc(Cc2ccccc2)cc1
- IC50 [1]: 0.52 µM
- IC50 [3]: > 10 µM
